Experimental data from article PMC11721022, “Standardized Chromatographic and Computational Approaches for Lipophilicity Analysis of Five Gliflozin Antidiabetic Drugs in Relation to Their Biological Activity” (Molecules, 2024).

Legend:
[1] = HPLC lipophilicity (log kW, standardized to log PEXP); format: physicochemical
Procedure: All experiments were performed using an HPLC system equipped with a solvent delivery pump 515 and a UV/VIS detector 2487 from Waters UK Sales (Elstree, UK), a degasser 964 from Jasco Inc. (Easton, MD, USA), and LiChrospher RP18, RP8 and CN columns (125 × 4.0 mm, 5 µm) from Merck. For RP18 and RP8 stationary phases, acetonitrile was used in the range of 35–60% and methanol in the range of 55–80%. For CN adsorbent, acetonitrile was used in the range 30–55% and methanol in the range 45–70%. For all chromatographic systems, a 5% step change in the concentration of the organic modifier was applied (Table S2 in Supplementary Files). The flow for each mobile phase and each chromatographic run was 1 mL/min while detection was performed at 260 nm. The analyzed drugs and six reference substances were dissolved in methanol to obtain concentrations of 0.1 mg/mL and injected into the column in the volume of 20 µL. All experiments were performed in triplicate with a constant temperature of 23 ± 0.5 °C.
(§1) In our study, six standards of known lipophilicity in the range of 0.62–3.5 were used. For each standard, the same chromatographic procedures were performed as for the analyzed drugs, obtaining their RF or tR values. Then, the RM, RMW, log k, and log kW values were calculated using Equations (1)–(3). In the next step, correlations between the chromatographically obtained RMW or log kW values for these six standards and their literary log P values were calculated and expressed as respective calibration equations (Table 1). In addition, using these calibration equations, the chromatographic systems were evaluated by calculating the log PEXP values for the standards. […] From these calibration equations, the experimental log PTLC and log PHPLC (log PEXP) for the examined drugs were determined, using their RMW and log kW values.

[2] = TLC lipophilicity (RMW, standardized to log PEXP); format: physicochemical
Procedure: Plates (10 × 10 cm, 0.25 mm) pre-coated with silica gel RP18F254, RP8F254 and CNF254 from Merck were used as the stationary phases. The tested drugs and six reference substances were dissolved in methanol to obtain working solutions at a concentration of 2 mg/mL. Volumes of 5 µL of these working solutions were spotted onto the plates which were then developed at a distance of 9 cm in the horizontal developing chambers (Chromdes, Lublin, Poland). The ranges for the organic modifier concentration in water varied depending on the type of stationary phase and the modifier used. For RP18 and RP8 systems, acetonitrile in the range 35–60% and methanol in the range 60–85% were used. For CN systems, acetonitrile was used in the range of 40–60% while methanol was used in the range of 45–65%. […] All experiments were performed in triplicate with a constant temperature of 23 ± 0.5 °C.
as §1

[3] = Experimental lipophilicity from HPLC and TLC methods combined (standardization procedure); format: physicochemical; conditions: mean over all HPLC and TLC systems
Procedure: as §1

SGLT2 [4] = experiment: SGLT2 inhibition (literature); format: biochemical; conditions: pIC50 (SGLT2, literature) minus mean log PEXP
SGLT2 [5] = conditions: Table 6; cited from earlier work
[6] = parameters: method as in PMID 30151080, PMID 34586753; conditions: cited from earlier work
[7] = parameters: method as in PMID 30151080, PMID 34586753; conditions: cited from earlier work; remark: listed apart in the source
[8] = parameters: method as in earlier work; conditions: established lipophilicity of standards; cited from earlier work
[9] = LiChrospher CN HPLC column (125 × 4.0 mm, 5 µm), HPLC.CN/ACN (CN column, acetonitrile modifier)
[10] = LiChrospher CN HPLC column (125 × 4.0 mm, 5 µm), HPLC.CN/MeOH (CN column, methanol modifier)
[11] = LiChrospher RP18 HPLC column (125 × 4.0 mm, 5 µm), HPLC.RP18/MeOH
[12] = LiChrospher RP8 HPLC column (125 × 4.0 mm, 5 µm), HPLC.RP8/ACN
[13] = LiChrospher RP18 HPLC column (125 × 4.0 mm, 5 µm), HPLC.RP18/ACN
[14] = HPLC.CN/MeOH (CN column, methanol modifier)
[15] = LiChrospher RP8 HPLC column (125 × 4.0 mm, 5 µm), HPLC.RP8/MeOH

chromatographic logP [1, 13] | Compound | log PEXP ([1]; HPLC.RP8/MeOH) | chromatographic logP [1, 9] | chromatographic logP [1, 10] | chromatographic logP [1, 11] | chromatographic logP ([2]; TLC.CN/ACN) | chromatographic logP ([2]; TLC.CN/MeOH) | chromatographic logP ([2]; TLC.RP8/ACN) | chromatographic logP ([2]; TLC.RP8/MeOH) | chromatographic logP ([2]; TLC.RP18/ACN) | chromatographic logP ([2]; TLC.RP18/MeOH) | log PEXP (Mean ± SD) [3] | LLE (lipophilic ligand efficiency) (SGLT2 [4]) | IC50 (SGLT2 [5]) | PB (protein-binding capacity) [6] | CL (apparent total clearance) [7] | VD (apparent volume of distribution) [7] | chromatographic logP [1, 12] | T0.5 (half-life) [7] | also measured
 | Cc1ccc([C@@H]2O[C@H](CO)[C@@H](O)[C@H](O)[C@H]2O)cc1Cc1ccc(-c2ccc(F)cc2)s1 [CANA, canagliflozin] | 4.43 | 3.73 | 4.91 | 4.55 | 2.4 | 5.86 | 3.55 | 4.07 | 3.47 | 4.43 | 3.99 ± 0.91 | 4.67 | 2.2 nM | 99% | 11.52 L/h | 83.5 L |  |  | log PEXP ([1]; HPLC.RP8/ACN): 3.23; log PEXP ([1]; HPLC.RP18/ACN): 3.28
2 | CCOc1ccc(Cc2cc([C@@H]3O[C@H](CO)[C@@H](O)[C@H](O)[C@H]3O)ccc2Cl)cc1 [DAPA, dapagliflozin] | 3.20 |  | 3.08 | 3.27 | 2.03 | 4.72 | 2.3 |  | 2.22 | 3.58 | 2.83 ± 0.78 | 6.12 |  | 91% | 12.42 L/h | 118 L | 2.11 |  | log PEXP ([1]; HPLC.CN/ACN (CN column, acetonitrile modifier)): 2.34; log PEXP ([2]; TLC.RP8/MeOH): 3.14
1.35 | OC[C@H]1O[C@@H](c2ccc(Cl)c(Cc3ccc(O[C@H]4CCOC4)cc3)c2)[C@H](O)[C@@H](O)[C@@H]1O [EMPA, empagliflozin] |  | 2.3 |  | 2.85 | 1.87 | 3.51 | 1.68 | 2.48 |  | 2.99 | 2.28 ± 0.73 | 6.23 |  | 86% | 10.6 L/h | 73.8 L |  | 12.4 h | log PEXP [1, 14]: 2.66; log PEXP ([1]; HPLC.RP8/ACN): 1.70; chromatographic logP [1, 15]: 2.78; log PEXP ([2]; TLC.RP18/ACN): 1.30
 | CCOc1ccc(Cc2cc([C@]34OC[C@](CO)(O3)[C@@H](O)[C@H](O)[C@H]4O)ccc2Cl)cc1 [ERTU, ertugliflozin] |  | 2.49 | 3.36 | 3.59 | 2.01 | 3.97 |  | 3.54 | 3.13 | 3.27 | 3.04 ± 0.61 | 6.02 | 0.87 nM | 94% | 10.68 L/h | 85.5 L | 2.4 | 11 h | log PEXP ([1]; HPLC.RP18/ACN): 2.22; chromatographic logP [1, 15]: 3.49; log PEXP ([2]; TLC.RP8/ACN): 2.99
 | Nc1ccccc1O [S1, 2-aminophenol] |  |  |  |  |  |  |  |  |  |  |  |  |  |  |  |  |  |  | log P [8]: 0.62
 | c1ccc(Nc2ccccc2)cc1 [S6, diphenylamine] |  |  |  |  |  |  |  |  |  |  |  |  |  |  |  |  |  |  | log P [8]: 3.5

Compound | chromatographic logP [1, 13] | log PEXP ([1]; HPLC.RP8/MeOH) | chromatographic logP [1, 9] | chromatographic logP [1, 10] | chromatographic logP [1, 11] | chromatographic logP ([2]; TLC.CN/ACN) | chromatographic logP ([2]; TLC.CN/MeOH) | chromatographic logP ([2]; TLC.RP8/ACN) | chromatographic logP ([2]; TLC.RP8/MeOH) | chromatographic logP ([2]; TLC.RP18/ACN) | chromatographic logP ([2]; TLC.RP18/MeOH) | log PEXP (Mean ± SD) [3] | LLE (lipophilic ligand efficiency) (SGLT2 [4]) | IC50 (SGLT2 [5]) | PB (protein-binding capacity) [6] | CL (apparent total clearance) [7] | VD (apparent volume of distribution) [7] | chromatographic logP [1, 12] | T0.5 (half-life) [7] | also measured
CCOc1ccc(Cc2cc([C@@H]3O[C@H](SC)[C@@H](O)[C@H](O)[C@H]3O)ccc2Cl)cc1 [SOTA, sotagliflozin] | 3.4 | 4.43 | 3.59 |  |  | 2.32 | 4.61 | 4.08 | 4.26 | 3.69 | 4.5 | 3.94 ± 0.67 | 4.8 | 1.8 nM | 98% | 261 L/h | 9392 L | 3.28 | 21 h | log PEXP [1, 14]: 4.57; log PEXP ([1]; HPLC.RP18/MeOH): 4.50
